The results in this text go back to paper PMC10609143, “Inhibitory Mechanisms of Lekethromycin in Dog Liver Cytochrome P450 Enzymes Based on UPLC-MS/MS Cocktail Method” (Molecules, 2023).

In general, IC50 refers to the concentration needed to halve the response being measured. Usually Ki stands for the dissociation constant of the complex between target and ligand, obtained from inhibition or displacement.

Bounds are passed on as bounds.

Holding throughout (format): in vitro ADME
A short description of data set [1]: CYP450 inhibition study of LKMS in dog liver microsomes, testosterone 6β-hydroxylation. The following applies: probe at Km, 15 min, 0.2 mg/mL protein, n = 3. As for the experimental part: (§1) All experiments were performed in triplicate.
(§2) Inhibition assessment of CYP450 isoforms in DLM was performed with a fixed concentration of model probe substrates and a series of concentrations of LKMS ranging from 0 to 80 μM. The concentration of probe substrates was at a concentration of Km in this study. […] Mode inhibition was examined based on a primary Lineweaver–Burk plot and a secondary plot.
(§3) The IC50 values and enzyme kinetic parameters were determined by plotting relative activities over the logarithm of the concentration of LKMS using GraphPad (v.8.0.2, CA, USA). The mode of the inhibitor was analyzed using a Lineweaver–Burk plot and a secondary plot for inhibition constant (Ki and αKi) values. All experimental data are shown as mean ± standard deviation (SD).

The target in data set [2] is T1, CYP2D6 (Canis lupus familiaris, UniProt Q29473).
T1 construct: from tissue; host or cells: dog liver microsomes (DLM)
T1 sequence (Q29473 1-500): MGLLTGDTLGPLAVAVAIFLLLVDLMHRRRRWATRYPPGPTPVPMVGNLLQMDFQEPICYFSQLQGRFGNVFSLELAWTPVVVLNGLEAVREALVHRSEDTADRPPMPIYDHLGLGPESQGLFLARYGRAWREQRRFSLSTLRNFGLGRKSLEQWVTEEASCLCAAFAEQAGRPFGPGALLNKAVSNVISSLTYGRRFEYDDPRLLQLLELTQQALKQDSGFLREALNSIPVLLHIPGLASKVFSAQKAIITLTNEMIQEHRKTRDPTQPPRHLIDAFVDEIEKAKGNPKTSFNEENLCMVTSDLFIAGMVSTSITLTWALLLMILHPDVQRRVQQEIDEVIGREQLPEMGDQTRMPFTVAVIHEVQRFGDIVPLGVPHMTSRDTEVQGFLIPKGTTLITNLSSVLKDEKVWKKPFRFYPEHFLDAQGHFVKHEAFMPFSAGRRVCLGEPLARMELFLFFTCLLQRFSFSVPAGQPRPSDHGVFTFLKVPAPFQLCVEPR
The experiment in a line: CYP450 inhibition study of LKMS in dog liver microsomes, dextromethorphan O-demethylation. The protocol:
as §1, §2, §3
(Liver microsomes are vesicles of endoplasmic reticulum, rich in cytochrome P450 enzymes.)

In data set [3] the target is T1, CYP2D6. The experiment in a line: Irreversible inhibition (IC50 shift) in dog liver microsomes. As for the experimental part:
To characterize the reversible or irreversible mechanism of CYP450 inhibition via LKMS, the shifted IC50 values were used to determine whether the inhibition of LKMS on CYP450 was time-dependent. […] The above mixture was then incubated for another 30 min in the presence of NADPH. The concentrations of LKMS were designated as 0.2, 2, 4, 6, 8, 10, 20, 40, and 80 μM, and the concentration of each probe substrate was based on each Km value. The concentrations of the probe substrates of CYP2A6, CYP2B6, and CYP2D6 were at single concentrations approximating their Km values.

For the next data set, the target named is T2, CYP2B6 (Canis lupus familiaris, UniProt P24460).
T2 construct: from tissue; host or cells: dog liver microsomes (DLM)
T2 sequence (P24460 1-494): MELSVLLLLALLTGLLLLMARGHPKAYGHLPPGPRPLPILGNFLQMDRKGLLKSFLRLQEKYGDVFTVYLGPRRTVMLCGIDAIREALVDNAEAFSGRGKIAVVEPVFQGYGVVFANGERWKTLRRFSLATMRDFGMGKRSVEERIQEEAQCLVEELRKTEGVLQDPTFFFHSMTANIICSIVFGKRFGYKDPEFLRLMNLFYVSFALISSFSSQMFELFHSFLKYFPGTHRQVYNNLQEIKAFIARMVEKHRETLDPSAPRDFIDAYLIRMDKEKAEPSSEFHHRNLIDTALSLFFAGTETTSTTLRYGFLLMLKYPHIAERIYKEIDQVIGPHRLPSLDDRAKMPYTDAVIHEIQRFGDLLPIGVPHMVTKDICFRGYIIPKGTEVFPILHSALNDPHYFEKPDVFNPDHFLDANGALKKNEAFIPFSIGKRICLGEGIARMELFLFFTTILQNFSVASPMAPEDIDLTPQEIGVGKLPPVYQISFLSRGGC
As to the kind of experiment: CYP450 inhibition study of LKMS in dog liver microsomes, bupropion hydroxylation. The protocol:
as §1, §2, §3

In the case of Lekethromycin [LKMS], the IC50 in data set [1] was > 200 µM; on CYP2D6 [2] (dog liver microsomes, dextromethorphan O-demethylation, probe at Km, 15 min, 0.2 mg/mL protein, n = 3) it was 39.7 µM. The Mode of inhibition entry is listed as “mixed way” on CYP2D6 [2] (CYP2D6, Lineweaver-Burk plots) and “mixed way” at CYP2B6 (CYP2B6, Lineweaver-Burk plots). Moreover, the Ki on CYP2D6 [2] (CYP2D6, dog liver microsomes, Lineweaver-Burk and secondary (slope) plot, n = 2, read-out: Ki (inhibition constant)) was 64.9 µM; at CYP2B6 (CYP2B6, dog liver microsomes, Lineweaver-Burk and secondary (slope) plot, n = 2, read-out: Ki (inhibition constant)), 59.4 µM. Further, the “αKi (alpha inhibition constant)” value was determined as 279.6 µM on CYP2D6 [2] (CYP2D6, dog liver microsomes, secondary (intercept) plot, n = 2) and 12.07 µM at CYP2B6 (CYP2B6, dog liver microsomes, secondary (intercept) plot, n = 2). Also, the “IC50 fold-shift, Shift Ratio (−NADPH/+NADPH)” value on CYP2D6 [3] (CYP2D6, 30 min preincubation at 37 °C with and without NADPH) is listed as 1.10. Further, the Time-dependent inhibition entry at CYP2D6 [3] (CYP2D6, judged from IC50 fold-shift <1.5) was “might not be a time-dependent inhibitor”.
